According to patent publication US11352329B2, “HIV protease inhibitors” (Gilead Sciences, Inc., priority 2017, dated 2022):
Like-named read-outs stand apart in the source and are kept apart here.

Tests used:
[1] = Liver microsomal stability, human; type: in vitro ADME; conditions: liver microsomes, read-out: Half-lives
Method: Test compounds and one control compound (verapamil) were tested in 3 different species in duplicate sets.
Test compound concentration: 1 uM; Protein concentration: 0.5 mg/mL (for dog, rat, and human liver microsomes); Cofactor: NADPH-Regenerating system (NRS) solution; Time-points: 2, 12, 25, 45, and 65 minutes.
Reaction Composition (in Each Incubation Well) Contains:
At an incubation temperature of 37° C., the reaction was started with addition of NADPH Regeneration System, at each time point, 25 uL of the reaction mixture was removed and added to a plate with 225 uL quenching solution (50% MeOH, 25% ACN, 25% H2O, and 200 nM labetalol as internal standard). After plates were vortexed, they were centrifuged for 30 minutes to remove proteins. About 100 μL supernatant was removed to a new plate and diluted with 150 μL water. About 20 μL of the mixture was injected into LC/MS/MS system to monitor the compound's response. In vitro measured t½ was used to calculate Clint values.

[2] = system: HIV-1 (IIIB) in MT-4 cells; test: microbe, parasite or virus in culture; type: cell-based
[3] = Human immunodeficiency virus 1, IIIB, MT4, MT-4 cells

Row | Compound | half-life at 1 uM [1] [h] | EC50 ([2]; MT-4 cells, read-out: MT4 EC50) [nM] | EC50 [2, 3] [nM]
1 | CC(C)(C)C[C@]1(c2ccc(-c3cnn(C(F)F)c3)cc2)NC(=N)N([C@H](COC(=O)N[C@@H]2C[C@H]2C(F)(F)F)c2ccc(Cl)c(-n3ncnc3C(F)F)c2)C1=O (single isomer, unassigned) [Compound 331] | ≥ 6.58 |  | 
2 | [H]/N=C1\N[C@](CC(C)(C)C)(c2ccc(-c3cnn(C(F)F)c3)cc2F)C(=O)N1[C@H](COC(=O)NC1CC1)c1ccc(Cl)c(-c2ncn[nH]2)c1 [Compound 11] |  | 35.5 | 
3 | CC(C)(C)C[C@]1(c2ccc(-c3cnn(C(F)F)c3)cc2)NC(=N)N([C@H](COC(=O)NC2CC2)c2ccc(Cl)c(-c3nccc(=O)[nH]3)c2)C1=O [Compound 17] | ≥ 6.58 |  | 556
4 | CC(C)(C)C[C@]1(c2ccc(-c3cnccn3)cc2)NC(=N)N([C@H](COC(=O)NC2(C(F)(F)F)CC2)c2ccc(Cl)c(-c3ncn[nH]3)c2)C1=O [Compound 26] |  | 102 | 
5 | CC(C)(C)C[C@]1(c2ccc(-c3cnn(C(F)F)c3)cc2)NC(=N)N([C@H](COC(=O)NC(C)(C)C(F)F)c2ccc(F)c(-c3ncnn3C(F)F)c2)C1=O [Compound 124] |  |  | 65.3
6 | CC(C)(C)C[C@]1(c2ccc(-c3cnn(C4CC4)c3)cc2)NC(=N)N([C@H](COC(=O)NC2(C(F)(F)F)CC2)c2ccc(Cl)c(-c3ncnn3C(F)F)c2)C1=O [Compound 164] |  |  | 16.5
7 | CC(C)(C)C[C@]1(c2ccc(-c3cn(C4CC4)nn3)cc2)NC(=N)N([C@H](COC(=O)NC2(C(F)(F)F)CC2)c2ccc(Cl)c(-n3ncnc3C(F)F)c2)C1=O [Compound 232] |  |  | 18.2
8 | CC(C)(C)C[C@]1(c2ccc(-c3cnn(C(F)F)c3)c(F)c2)NC(=N)N([C@H](COC(=O)NCC(C)(F)F)c2ccc(Cl)c(-n3ncnc3C(F)F)c2)C1=O [Compound 299] |  | 13 | 
9 | CC(C)(C)C[C@]1(c2ccc3ncc(Br)cc3c2)NC(=N)N([C@H](COC(=O)NC(C)(C)C(F)F)c2ccc(Cl)c(-n3ncnc3C(F)F)c2)C1=O [Compound 327] |  |  | 30.7
10 | CC(C)(C#N)C[C@]1(c2ccc(-c3cnn(C(F)F)c3)cc2)NC(=N)N([C@H](COC(=O)NC2(C(F)(F)F)CC2)c2ccc(Cl)c(-n3ncnc3C(F)F)c2)C1=O [Compound 336] | ≥ 6.58 |  | 74.7
11 | CC(C)(CC#N)C[C@]1(c2ccc(-c3cnn(C4CC4)n3)cc2)NC(=N)N([C@H](COC(=O)NC2(C(F)(F)F)CC2)c2ccc(Cl)c(-n3ncnc3C(F)F)c2)C1=O [Compound 362] |  |  | 36.4
12 | CC(C)(C)C[C@]1(c2ccc(-c3cnn(C(C)(C)C)n3)cc2)NC(=N)N([C@H](COC(=O)NC2(C(F)(F)F)CC2)c2ccc(Cl)c(-n3ncnc3C(F)F)c2)C1=O [Compound 371] |  |  | 26.7
13 | CC(C)(C)C[C@]1(c2ccc(-c3cnn(C(F)F)c3)cc2)NC(=N)N([C@H](COC(=O)NC2(C(F)(F)F)CC2)c2ccc(-n3ncnc3C(F)F)c(F)c2)C1=O [Compound 379] |  |  | 134
14 | CC(C)(C)C[C@]1(c2ccc(-c3cnn(C(F)F)c3)cc2)NC(=N)N([C@H](COC(=O)NC2(C(F)(F)F)CC2)c2ccc(F)c(-n3ncnc3C(F)F)c2)C1=O [Compound 380] | ≥ 6.58 |  | 29.2
15 | COC(=O)N[C@H](C(=O)N[C@@H](Cc1ccccc1)[C@@H](O)CN(Cc1ccc(-c2ccccn2)cc1)NC(=O)[C@@H](NC(=O)OC)C(C)(C)C)C(C)(C)C [atazanavir, methyl N-[(2S)-1-[2-[(2S,3S)-2-hydroxy-3-[[(2S)-2-(methoxycarbonylamino)-3,3-dimethylbutanoyl]amino]-4-phenylbutyl]-2-[(4-pyridin-2-ylphenyl)methyl]hydrazinyl]-3,3-dimethyl-1-oxobutan-2-yl]carbamate, reference compound] | 0.433 to 1.78 |  | 
